Data reported in patent US8536136B2, “Inhibitors of serine proteases, particularly HCV NS3-NS4A protease” (Vertex Pharmaceuticals Incorporated, priority 2004, dated 2013).

Target: HCV NS3-NS4A protease (tNS3 with KK4A) (Hepatitis C virus genotype 1a, UniProt P27958)
Test: HCV Ki Assay (HPLC microbore separation of 5AB substrate and products)
Type: biochemical
Conditions: 25 nM tNS3, 25 μM KK4A, 25 μM 5AB substrate, 20 min at 30 C
Procedure: HPLC Microbore Method for Separation of 5AB Substrate and Products
NH2-Glu-Asp-Val-Val-(alpha)Abu-Cys-Ser-Met-Ser-Tyr-COOH
A stock solution of 20 mM 5AB (or concentration of your choice) was made in DMSO w/0.2M DTT. This was stored in aliquots at −20 C.
Buffer: 50 mM HEPES, pH 7.8; 20% glycerol; 100 mM NaCl
Total assay volume was 100 μL
The buffer, KK4A, DTT, and tNS3 were combined; distributed 78 μL each into wells of 96 well plate. This was incubated at 30 C for ˜5-10 min.
2.5 μL of appropriate concentration of test compound was dissolved in DMSO (DMSO only for control) and added to each well. This was incubated at room temperature for 15 min.
Initiated reaction by addition of 20 μL of 250 μM 5AB substrate (25 μM concentration is equivalent or slightly lower than the Km for 5AB).
Incubated for 20 min at 30 C.
Terminated reaction by addition of 25 μL of 10% TFA
Transferred 120 μL aliquots to HPLC vials
Separated SMSY product from substrate and KK4A by the following method:
Microbore Separation Method:
Stop time: 17 min Post-run time: 10 min.

HCV NS3-NS4A protease (tNS3 with KK4A), sequence (P27958 1027-1208): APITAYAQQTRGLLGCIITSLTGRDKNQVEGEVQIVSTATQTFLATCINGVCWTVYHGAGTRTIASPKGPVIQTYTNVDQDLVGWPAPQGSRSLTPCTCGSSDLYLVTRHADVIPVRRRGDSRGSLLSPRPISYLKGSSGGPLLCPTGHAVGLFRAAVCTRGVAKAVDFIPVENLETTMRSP
HCV NS3-NS4A protease (tNS3 with KK4A), sequence (P27958 1658-1711): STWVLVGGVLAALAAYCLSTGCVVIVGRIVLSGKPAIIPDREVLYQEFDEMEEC

**Q.** With `CCC[C@H](NC(=O)[C@@H]1C[C@@H]2CCCC[C@@H]2N1C(=O)[C@@H](NC(=O)[C@@H](NC(=O)c1cnccn1)C1CCCCC1)C(C)(C)C)C(=O)C(=O)NOCC(C)C` [Compound 1, 1-(2-{2-Cyclohexyl-2-[(pyrazine-2-carbonyl)-amino]-acetylamino}-3,3-dimethyl-butyryl)-octahydro-indole-2-carboxylic acid (1-isobutoxyaminooxalyl-butyl)-amide] as the compound, how does the Ki read?
**A.** < 1500 nM

**Q.** Which Ki does the source give for `CCC[C@H](NC(=O)[C@@H]1C[C@@H]2CCCC[C@@H]2N1C(=O)[C@@H](NC(=O)[C@@H](NC(=O)c1cnccn1)C1CCCCC1)C(C)(C)C)C(=O)C(=O)NOC(C)(C)C` [Compound 2, 1-(2-{2-Cyclohexyl-2-[(pyrazine-2-carbonyl)-amino]-acetylamino}-3,3-dimethyl-butyryl)-octahydro-indole-2-carboxylic acid (1-tert-butoxyaminooxalyl-butyl)-amide] here?
**A.** < 1500 nM

**Q.** Which Ki does the source give for `CCC[C@H](NC(=O)[C@@H]1C[C@@H]2CCCC[C@@H]2N1C(=O)[C@@H](NC(=O)[C@@H](NC(=O)c1cnccn1)C1CCCCC1)C(C)(C)C)C(=O)C(=O)NOCc1ccccc1` [Compound 3, 1-(2-{2-Cyclohexyl-2-[(pyrazine-2-carbonyl)-amino]-acetylamino}-3,3-dimethyl-butyryl)-octahydro-indole-2-carboxylic acid (1-benzyloxyaminooxalyl-butyl)-amide] here?
**A.** 1500 to 3000 nM

**Q.** For `C=CCONC(=O)C(=O)[C@H](CCC)NC(=O)[C@@H]1C[C@@H]2CCCC[C@@H]2N1C(=O)[C@@H](NC(=O)[C@@H](NC(=O)c1cnccn1)C1CCCCC1)C(C)(C)C` [Compound 4, 1-(2-{2-Cyclohexyl-2-[(pyrazine-2-carbonyl)-amino]-acetylamino}-3,3-dimethyl-butyryl)-octahydro-indole-2-carboxylic acid (1-allyloxyaminooxalyl-butyl)-amide], which Ki is on record?
**A.** > 3000 nM

**Q.** Which Ki does the source give for `CCC[C@H](NC(=O)[C@@H]1C[C@@H]2CCCC[C@@H]2N1C(=O)[C@@H](NC(=O)[C@@H](NC(=O)c1cnccn1)C1CCCCC1)C(C)(C)C)C(=O)C(=O)NOc1ccccc1` [Compound 5, 1-(2-{2-Cyclohexyl-2-[(pyrazine-2-carbonyl)-amino]-acetylamino}-3,3-dimethyl-butyryl)-octahydro-indole-2-carboxylic acid (1-phenoxyaminooxalyl-butyl)-amide] here?
**A.** 1500 to 3000 nM

**Q.** For `CCC[C@H](NC(=O)[C@@H]1C[C@@H]2CCCC[C@@H]2N1C(=O)[C@@H](NC(=O)[C@@H](NC(=O)c1cnccn1)C1CCCCC1)C(C)(C)C)C(=O)C(=O)NN(C)c1ccccc1` [Compound 6, 1-(2-{2-Cyclohexyl-2-[(pyrazine-2-carbonyl)-amino]-acetylamino}-3,3-dimethyl-butyryl)-octahydro-indole-2-carboxylic acid [1-(N′-methyl-N′-phenyl-hydrazinooxalyl)-butyl]-amide], which Ki is on record?
**A.** < 1500 nM

**Q.** How did the Ki turn out when `CCC[C@H](NC(=O)[C@@H]1C[C@@H]2CCCC[C@@H]2N1C(=O)[C@@H](NC(=O)[C@@H](NC(=O)c1cnccn1)C1CCCCC1)C(C)(C)C)C(=O)C(=O)NN1CCOCC1` [Compound 7] was run?
**A.** > 3000 nM

**Q.** `CCC[C@H](NC(=O)[C@@H]1C[C@@H]2CCCC[C@@H]2N1C(=O)[C@@H](NC(=O)[C@@H](NC(=O)c1cnccn1)C1CCCCC1)C(C)(C)C)C(=O)C(=O)NN(Cc1ccccc1)Cc1ccccc1` [Compound 8] was tested. Which Ki did it give?
**A.** > 3000 nM
